Legend:
[1] = tested on: Human immunodeficiency virus 1; experiment: Reversal of HIV-1 latency infected in GFP-fused human A10.6 cells assessed as increase in GFP expressing cells at 0.25 uM incubated for 24 hrs by FACS analysis; type: functional
[2] = tested on: Human immunodeficiency virus 1; experiment: Reversal of HIV-1 latency infected in GFP-fused human A10.6 cells assessed as increase in GFP expressing cells at 1 uM incubated for 24 hrs by FACS analysis; type: functional, A10.6 cell
[3] = tested on: Human immunodeficiency virus 1; experiment: Reversal of HIV-1 latency infected in GFP-fused human A10.6 cells assessed as fold increase in acetylation of H4 within Nuc-1 at 0.5 uM incubated for 4 hrs by ChIP assay; type: functional, A10.6 cell
[4] = tested on: Human immunodeficiency virus 1; experiment: Reversal of HIV-1 latency infected in GFP-fused human A10.6 cells assessed as fold increase in acetylation of H3 within Nuc-1 at 0.5 uM incubated for 4 hrs by ChIP assay; type: functional, A10.6 cell
[5] = tested on: Human immunodeficiency virus 1; experiment: Reversal of HIV-1 latency infected in GFP-fused human J-Lat 10.6 cells increase in GFP expressing cells by FACS analysis; type: functional, organism-based; conditions: Human immunodeficiency virus 1, J-Lat 10.6
[6] = tested on: Human immunodeficiency virus 1; experiment: Reactivation of HIV-1 latency in GFP-fused human primary CD4+ve Th cells infected with HIV-1NL4-3 luciferase virus assessed as fold increase in GFP expression incubated for 48 hrs by luciferase luminescence analysis; type: functional
[7] = target: N-lysine methyltransferase SMYD2 (Homo sapiens, UniProt Q9NRG4); experiment: Inhibition of SMYD2 (unknown origin)
Chain of N-lysine methyltransferase SMYD2 (Q9NRG4 whole entry): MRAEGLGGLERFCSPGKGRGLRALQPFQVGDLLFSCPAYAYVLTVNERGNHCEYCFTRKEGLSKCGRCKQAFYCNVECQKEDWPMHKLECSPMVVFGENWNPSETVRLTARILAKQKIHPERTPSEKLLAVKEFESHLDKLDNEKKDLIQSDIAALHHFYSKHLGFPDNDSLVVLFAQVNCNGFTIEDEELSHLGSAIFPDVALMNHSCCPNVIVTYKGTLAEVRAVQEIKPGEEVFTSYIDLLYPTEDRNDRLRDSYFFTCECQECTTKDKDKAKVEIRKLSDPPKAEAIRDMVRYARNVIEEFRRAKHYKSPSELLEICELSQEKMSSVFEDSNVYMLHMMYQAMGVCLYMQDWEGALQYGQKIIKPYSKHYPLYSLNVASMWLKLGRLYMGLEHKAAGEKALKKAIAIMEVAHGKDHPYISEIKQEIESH

[8] = tested on: Human immunodeficiency virus 1; experiment: Reactivation of HIV-1 latency infected in human J-Lat GFP Clone A72 cells assessed as increase in GFP expression at 5 to 10 mM incubated for 18 hrs by flow cytometry; type: functional; conditions: dose 5-10 mM
[9] = tested on: Human immunodeficiency virus 1; experiment: Reactivation of HIV-1 latency infected in human CD4+ve Th cells assessed as fold increase in GFP expression at 500 nM incubated for 18 hrs by flow cytometry; type: functional
[10] = tested on: Human immunodeficiency virus 1; experiment: Reactivation of HIV-1 latency infected in GFP-fused human J-Lat 10.6 cells assessed as increase in GFP expression incubated for 48 hrs by flow cytometry; type: functional, organism-based; conditions: Human immunodeficiency virus 1, J-Lat 10.6, 48 h
[11] = tested on: Human immunodeficiency virus 1; experiment: Reversal of HIV-1 latency infected in GFP-fused human J-Lat C11 cells assessed as increase in GFP expression at 2 uM incubated for 3 hrs by flow cytometry; type: functional
[12] = tested on: Human immunodeficiency virus 1; experiment: Reversal of HIV-1 latency infected in human J-Lat Tat-GFP Clone A7 cells assessed as increase in GFP expressing cells at 100 nM incubated for 72 hrs by flow cytometry analysis relative to control; type: functional
[13] = tested on: Human immunodeficiency virus 1; experiment: Reactivation of HIV-1 latency infected in GFP-fused human J-Lat C11 cells assessed as increase in GFP expression at 1 to 100000 nM incubated for 48 hrs by flow cytometry; type: functional; conditions: dose 1-100000 nM
[14] = tested on: Human immunodeficiency virus 1; experiment: Reactivation of HIV-1 latency infected in GFP-fused human J-Lat 10.6 cells assessed as increase in GFP expression at 1 to 100000 nM incubated for 48 hrs by flow cytometry; type: functional; conditions: dose 1-100000 nM
[15] = tested on: Human immunodeficiency virus 1; experiment: Reactivation of HIV-1 latency infected in GFP-fused human J-Lat C11 cells assessed as increase in GFP expression incubated for 48 hrs by flow cytometry; type: functional, organism-based; conditions: Human immunodeficiency virus 1, J-Lat C11, 48 h
[16] = Cytotoxicity against human J-Lat C11 cells assessed as reduction in cell viability incubated for 72 hrs by CCK-8 assay; type: toxicity, cell-based
[17] = Cytotoxicity against human J-Lat 10.6 cells assessed as reduction in cell viability incubated for 72 hrs by CCK-8 assay; type: toxicity, cell-based
[18] = Inhibition of HIV-1 latency infected in human ACH-2 cells assessed as fold increase in HIV production by measuring p24 level incubated for 48 hrs in presence of BIX01294 by ELISA; type: functional, Human immunodeficiency virus 1, ACH-2 cell line
[19] = tested on: Human immunodeficiency virus 1; experiment: Reversal of HIV-1 latency in human ACH-2 cells assessed as increase in GFP positive cells incubated for 24 hrs by flow cytometry; type: functional, organism-based, ACH-2 cell line; conditions: Human immunodeficiency virus 1, ACH-2, 24 h
[20] = tested on: Human immunodeficiency virus 1; experiment: Reactivation of HIV-1 latency in human U1 cells assessed as fold increase in HIV transcription by measuring GFP expression at 2 uM incubated for 24 hrs in presence of PEP005 by flow cytometry; type: functional
[21] = tested on: Human immunodeficiency virus 1; experiment: Reversal of HIV-1 latency infected in GFP-fused human J-Lat C11 cells assessed as increase in GFP expression at 4 uM incubated for 3 hrs by flow cytometry; type: functional
[22] = tested on: Human immunodeficiency virus 1; experiment: Reversal of HIV-1 latency infected in GFP-fused human J-Lat A2 cells assessed as increase in GFP expression at 4 uM incubated for 3 hrs by flow cytometry; type: functional

CCC(=O)CCCCC[C@@H]1NC(=O)[C@H]2CCCCN2C(=O)[C@H]([C@@H](C)CC)NC(=O)[C@H](Cc2cc3ccccc3n2OC)NC1=O
Activity [1]: 7.5% | Activity [2]: 24.9% | fold change (FC) [3]: 3.15 | fold change (FC) [4]: 1.34

O=C(CCCCSc1nc(-c2ccc(-c3ccccc3)cc2)cc(=O)[nH]1)NO
EC50 [5]: 350 nM | fold change (FC) [6]: 4.3

N#Cc1cc(C(=O)NCCCN2CCCC2)cc(-c2ccccc2N2CCN(CCc3c[nH]c4ccccc34)CC2)c1
IC50 [7]: 27 nM | Activity [8]: 30% | fold change (FC) [9]: 4

O=C(NCCCN1CCCC1)c1cncc(-c2ccccc2N2CCN(CCc3c[nH]c4ccccc34)CC2)c1
Activity [8]: 30%

CC(C)=CC(=O)O[C@H]1C(C)=C[C@]23C(=O)[C@H](C=C(CO)[C@@H](O)[C@]12O)C1C(C[C@H]3C)C1(C)C (some centres undefined)
EC50 [10]: 58 nM

O=C(CCCCCCC(=O)Nc1ccccc1)NO [VORINOSTAT]
Activity [11]: 3.2%

CC(/C=C/C(=O)NO)=C\[C@@H](C)C(=O)c1ccc(N(C)C)cc1 [TRICHOSTATIN]
Activity [12]: 21.3%

CCCCCCCCCCCC(=O)OCC1=C[C@H]2C(=O)[C@]3(C=C(C)[C@H](OC(=O)CC(C)C(C)C)[C@@]3(O)[C@@H]1O)[C@H](C)CC1C2C1(C)C (some centres undefined)
Activity [13]: 80% | Activity [14]: 90% | EC50 [15]: 3.53 nM | EC50 [10]: 4.06 nM | CC50 at 72 h [16]: 68.5 nM | CC50 at 72 h [17]: 94.2 nM

Nc1ncn([C@@H]2O[C@H](CO)[C@@H](O)[C@H]2O)c(=O)n1 [AZACITIDINE]
fold change (FC) [18]: 47

CC(C)[C@H]1C(=O)N[C@H](CO)Cc2c[nH]c3cccc(c23)N1C [INDOLACTUM]
EC50 [19]: 47 nM

Cc1sc2c(c1C)C(c1ccc(Cl)cc1)=N[C@@H](CC(=O)OC(C)(C)C)c1nnc(C)n1-2
fold change (FC) [20]: 250

Nc1ccc(F)cc1NC(=O)c1ccc(CNC(=O)/C=C/c2cccnc2)cc1
Activity [21]: 82.6% | Activity [22]: 80.6%

— ChEMBL document CHEMBL5096158, “HIV latency reversal agents: A potential path for functional cure?” (Eur J Med Chem, 2021)
